Test: xn = mol fraction of the nth substance listed
Conditions: Liquid, Vibrating tube method

CN(C)C=O [dimethylformamide] + O=C=O
Conditions	mass density [kg/m3]
342.93 K, 22027 kPa, x2 = 0.2876	930.22
342.93 K, 23002 kPa, x2 = 0.2876	931.1
342.93 K, 24027 kPa, x2 = 0.2876	932.06
342.93 K, 25009 kPa, x2 = 0.2876	932.97
342.94 K, 7029 kPa, x2 = 0.4502	913.19
342.94 K, 8013 kPa, x2 = 0.4502	914.64
342.94 K, 9011 kPa, x2 = 0.4502	916.09
342.94 K, 9055 kPa, x2 = 0.4068	917.41
342.94 K, 9984 kPa, x2 = 0.4068	918.63
342.94 K, 9999 kPa, x2 = 0.4502	917.51
342.94 K, 11025 kPa, x2 = 0.4502	918.98
342.94 K, 11061 kPa, x2 = 0.4068	920.01
342.94 K, 11996 kPa, x2 = 0.4068	921.23
342.94 K, 12004 kPa, x2 = 0.4502	920.36
342.94 K, 13007 kPa, x2 = 0.4502	921.76
342.94 K, 13050 kPa, x2 = 0.4068	922.57
342.94 K, 13993 kPa, x2 = 0.4502	923.08
342.94 K, 14076 kPa, x2 = 0.4068	923.82
342.94 K, 15011 kPa, x2 = 0.4068	925
342.94 K, 15025 kPa, x2 = 0.4502	924.49
342.94 K, 16021 kPa, x2 = 0.4068	926.2
342.94 K, 16028 kPa, x2 = 0.4502	925.84
342.94 K, 17002 kPa, x2 = 0.4502	927.13
342.94 K, 17029 kPa, x2 = 0.4068	927.42
342.94 K, 18001 kPa, x2 = 0.4068	928.58
342.94 K, 18035 kPa, x2 = 0.4502	928.51
342.94 K, 19023 kPa, x2 = 0.4502	929.75
342.94 K, 19026 kPa, x2 = 0.4068	929.79
342.94 K, 20023 kPa, x2 = 0.4502	931
342.94 K, 20073 kPa, x2 = 0.4068	931.01
342.94 K, 21008 kPa, x2 = 0.4068	932.09
342.94 K, 21013 kPa, x2 = 0.4502	932.27
342.94 K, 22005 kPa, x2 = 0.4068	933.21
342.94 K, 22036 kPa, x2 = 0.4502	933.51
342.94 K, 22992 kPa, x2 = 0.4068	934.31
342.94 K, 23032 kPa, x2 = 0.4502	934.76
342.94 K, 24003 kPa, x2 = 0.4502	935.89
342.94 K, 24049 kPa, x2 = 0.4068	935.49
342.94 K, 25041 kPa, x2 = 0.4502	937.14
342.94 K, 25062 kPa, x2 = 0.4068	936.61
352.81 K, 11994 kPa, x2 = 0.6235	863.79
352.81 K, 13017 kPa, x2 = 0.6235	868.11
352.81 K, 14003 kPa, x2 = 0.6235	871.85
352.81 K, 15051 kPa, x2 = 0.6235	875.54
352.81 K, 16021 kPa, x2 = 0.6235	878.85
352.81 K, 17011 kPa, x2 = 0.6235	882.12
352.81 K, 18025 kPa, x2 = 0.6235	885.31
352.81 K, 19034 kPa, x2 = 0.6235	888.42
352.81 K, 20027 kPa, x2 = 0.6235	891.37
352.81 K, 20969 kPa, x2 = 0.6235	894.02
352.81 K, 22044 kPa, x2 = 0.6235	897.02
352.81 K, 22987 kPa, x2 = 0.6235	899.54
352.81 K, 24010 kPa, x2 = 0.6235	902.21
352.81 K, 25062 kPa, x2 = 0.6235	904.9
352.86 K, 16031 kPa, x2 = 0.8091	799.4
352.86 K, 17002 kPa, x2 = 0.8091	806.61
352.86 K, 17024 kPa, x2 = 0.9311	684.5
352.86 K, 18005 kPa, x2 = 0.9311	702.67
352.86 K, 18047 kPa, x2 = 0.8091	814.2
352.86 K, 19028 kPa, x2 = 0.9311	718.94
352.86 K, 19050 kPa, x2 = 0.8091	820.88
352.86 K, 20001 kPa, x2 = 0.9311	732.41
352.86 K, 20005 kPa, x2 = 0.8091	827.13
352.86 K, 21006 kPa, x2 = 0.9311	744.94
352.86 K, 21045 kPa, x2 = 0.8091	833.27
352.86 K, 22024 kPa, x2 = 0.9311	756.39
352.86 K, 22052 kPa, x2 = 0.8091	839.08
352.86 K, 23012 kPa, x2 = 0.9311	766.47
352.86 K, 23029 kPa, x2 = 0.8091	844.25
352.86 K, 23999 kPa, x2 = 0.9311	775.83
352.86 K, 24015 kPa, x2 = 0.8091	849.31
352.86 K, 25019 kPa, x2 = 0.9311	784.81
352.86 K, 25051 kPa, x2 = 0.8091	854.32
352.87 K, 7031 kPa, x2 = 0.2876	902.49
352.87 K, 8016 kPa, x2 = 0.2876	903.63
352.87 K, 9024 kPa, x2 = 0.2876	904.79
352.87 K, 10008 kPa, x2 = 0.4268	903.63
352.87 K, 10027 kPa, x2 = 0.2876	905.96
352.87 K, 11005 kPa, x2 = 0.4268	905.13
352.87 K, 11011 kPa, x2 = 0.2876	907.05
352.87 K, 12022 kPa, x2 = 0.2876	908.2
352.87 K, 12055 kPa, x2 = 0.4268	906.66
352.87 K, 13022 kPa, x2 = 0.2876	909.31

Source: the NIST ThermoML archive (doi:10.1021/je050050p)
